In patent US10259810B2, “N-sulfonylated pyrazolo[3,4-b]pyridin-6-carboxamides and method of use” (AbbVie S.à.r.l., priority 2015, dated 2019):

Tests used:
ΔF508-CFTR [1] = biological target: T1, ΔF508-CFTR (Homo sapiens, UniProt P13569, DEL508-508); assay: CFTR cell surface levels using HRP-tagged ΔF508-CFTR expressing CFBE cells, in the presence of a co-corrector; type: cell-based; settings: HRP-tagged ΔF508-CFTR CFBE cells, in the presence of 3 μM co-corrector; for EC50: read-out: EC50
T1 construct: host or cells: CFBE41o-, doxycycline-inducible
T1 sequence (P13569 with tags, fused parts or gaps DEL508-508): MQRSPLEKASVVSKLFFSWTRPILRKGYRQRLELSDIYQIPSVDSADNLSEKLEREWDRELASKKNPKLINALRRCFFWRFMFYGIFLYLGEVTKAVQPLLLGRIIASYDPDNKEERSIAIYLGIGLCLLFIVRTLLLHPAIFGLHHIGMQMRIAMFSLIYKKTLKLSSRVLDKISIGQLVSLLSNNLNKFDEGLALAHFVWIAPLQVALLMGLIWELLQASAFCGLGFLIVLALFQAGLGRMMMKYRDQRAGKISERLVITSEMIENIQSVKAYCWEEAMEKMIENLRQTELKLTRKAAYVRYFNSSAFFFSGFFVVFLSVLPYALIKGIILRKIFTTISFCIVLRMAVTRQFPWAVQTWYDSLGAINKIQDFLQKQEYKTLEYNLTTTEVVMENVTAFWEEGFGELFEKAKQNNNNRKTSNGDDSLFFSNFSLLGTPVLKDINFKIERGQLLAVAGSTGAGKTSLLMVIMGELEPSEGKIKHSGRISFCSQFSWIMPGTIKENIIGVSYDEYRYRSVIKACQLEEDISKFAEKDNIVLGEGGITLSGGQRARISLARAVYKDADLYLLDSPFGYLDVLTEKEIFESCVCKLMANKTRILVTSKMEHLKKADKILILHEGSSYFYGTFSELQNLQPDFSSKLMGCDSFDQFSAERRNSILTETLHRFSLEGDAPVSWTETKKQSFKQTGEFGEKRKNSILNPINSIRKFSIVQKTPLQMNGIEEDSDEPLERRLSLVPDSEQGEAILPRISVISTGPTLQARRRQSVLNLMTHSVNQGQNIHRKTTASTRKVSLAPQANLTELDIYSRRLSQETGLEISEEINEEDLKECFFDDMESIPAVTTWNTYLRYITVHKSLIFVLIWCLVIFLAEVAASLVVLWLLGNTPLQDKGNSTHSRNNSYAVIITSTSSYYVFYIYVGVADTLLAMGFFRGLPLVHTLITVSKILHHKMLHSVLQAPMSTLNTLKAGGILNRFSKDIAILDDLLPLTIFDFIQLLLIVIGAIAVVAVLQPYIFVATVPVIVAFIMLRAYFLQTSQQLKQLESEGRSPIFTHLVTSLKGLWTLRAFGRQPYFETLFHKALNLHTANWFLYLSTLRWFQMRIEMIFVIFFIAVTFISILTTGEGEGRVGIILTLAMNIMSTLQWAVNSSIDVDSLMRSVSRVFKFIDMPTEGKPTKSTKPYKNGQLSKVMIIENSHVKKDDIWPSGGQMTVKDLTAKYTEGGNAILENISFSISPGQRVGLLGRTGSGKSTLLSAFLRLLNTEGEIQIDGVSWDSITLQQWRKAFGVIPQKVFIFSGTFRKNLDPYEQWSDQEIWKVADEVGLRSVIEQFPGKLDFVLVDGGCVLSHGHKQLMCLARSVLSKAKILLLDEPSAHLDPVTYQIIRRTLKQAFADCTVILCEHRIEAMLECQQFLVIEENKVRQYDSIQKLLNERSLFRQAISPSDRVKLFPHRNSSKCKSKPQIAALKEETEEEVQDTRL
Method in brief: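 Chemiluminescent read-out of surface HRP (15 min, dark) after PBS washes. Activity is normalized as 100×(sample−DMSO)/(3 μM co-corrector alone−DMSO).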

ΔF508-CFTR [2] = biological target: T1, ΔF508-CFTR; assay: CFTR cell surface levels using HRP-tagged ΔF508-CFTR expressing CFBE cells, intrinsic corrector capacity; type: cell-based; parameters: % Activation: concentration or dose not given beside the values; settings: HRP-tagged ΔF508-CFTR expressing CFBE41o- cells, compound alone (intrinsic corrector capacity), 20 hours at 33° C.; for EC50: read-out: EC50
Method in brief: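 Surface ΔF508-CFTR was measured as HRP chemiluminescence from an extracellular-loop-4 tag, expressed as percent activity between DMSO and a […] corrector control.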

SMILES | % Activation (ΔF508-CFTR [1]) [%] | EC50 (ΔF508-CFTR [1]) [nM] | % Activation (ΔF508-CFTR [2]) [%] | EC50 (ΔF508-CFTR [2]) [nM]
COCCS(=O)(=O)NC(=O)c1cc(N2CCN(C(C)C)CC2)c2c(C3CCC3)nn(-c3ccccc3)c2n1 [Compound 271, 3-cyclobutyl-N-(2-methoxyethanesulfonyl)-1-phenyl-4-[4-(propan-2-yl)piperazin-1-yl]-1H-pyrazolo[3,4-b]pyridine-6-carboxamide] | 260.47 | 1020 | 63.905 | 1950
COCCS(=O)(=O)NC(=O)c1cc(-c2ccc(N3CCC(C#N)CC3)nc2)c2c(OC3CCOC3)nn(-c3ccccc3)c2n1 (stereo not drawn) [Compound 275, 4-[6-(4-cyanopiperidin-1-yl)pyridin-3-yl]-N-(2-methoxyethanesulfonyl)-3-[(oxolan-3-yl)oxy]-1-phenyl-1H-pyrazolo[3,4-b]pyridine-6-carboxamide] | 269.85 | 138 | 138.8 | 468
COCCS(=O)(=O)NC(=O)c1cc(-c2ccc(N3CCC(C#N)CC3)nc2)c2c(n1)n(-c1ccccc1)nc2[C@H]1C[C@H](C)C1 [Compound 276, 4-[6-(4-cyanopiperidin-1-yl)pyridin-3-yl]-N-(2-methoxyethanesulfonyl)-3-(trans-3-methylcyclobutyl)-1-phenyl-1H-pyrazolo[3,4-b]pyridine-6-carboxamide] | 417.25 | 42.9 | 356.7 | 779
CS(=O)(=O)NC(=O)c1cc(-c2ccc(N3CCC(C#N)CC3)nc2)c2c(OC3CCOC3)nn(-c3ccccc3)c2n1 (stereo not drawn) [Compound 277, 4-[6-(4-cyanopiperidin-1-yl)pyridin-3-yl]-N-(methanesulfonyl)-3-[(oxolan-3-yl)oxy]-1-phenyl-1H-pyrazolo[3,4-b]pyridine-6-carboxamide] | 355.4 | 127 | 155.4 | 251
CC(C)c1nn(-c2cccc(N(C)C)c2)c2nc(C(=O)NS(C)(=O)=O)cc(OCC3CCOCC3)c12 [Compound 278, 1-[3-(dimethylamino)phenyl]-N-(methanesulfonyl)-4-[(oxan-4-yl)methoxy]-3-(propan-2-yl)-1H-pyrazolo[3,4-b]pyridine-6-carboxamide] | 388.5 | 88.3 | 233.7 | 120
CC(C)c1nn(-c2ccc(F)cc2)c2nc(C(=O)NS(C)(=O)=O)cc(N3CCN(C4CCC4)CC3)c12 [Compound 280, 4-(4-cyclobutylpiperazin-1-yl)-1-(4-fluorophenyl)-N-(methanesulfonyl)-3-(propan-2-yl)-1H-pyrazolo[3,4-b]pyridine-6-carboxamide] | 323.37 | 1010 | 121.9 | 1010
CS(=O)(=O)NC(=O)c1cc(OCCCN2CCOCC2)c2c(C3CCC3)nn(-c3ccccc3)c2n1 [Compound 281, 3-cyclobutyl-N-(methanesulfonyl)-4-[3-(morpholin-4-yl)propoxy]-1-phenyl-1H-pyrazolo[3,4-b]pyridine-6-carboxamide] | 398.47 | 242 | 230.15 | 457
CC1(COc2cc(C(=O)NS(C)(=O)=O)nc3c2c(C2CCC2)nn3-c2ccccc2)CC(F)(F)C1 [Compound 282, 3-cyclobutyl-4-[(3,3-difluoro-1-methylcyclobutyl)methoxy]-N-(methanesulfonyl)-1-phenyl-1H-pyrazolo[3,4-b]pyridine-6-carboxamide] | 379.95 | 89 | 127.8 | 129
CS(=O)(=O)NC(=O)c1cc(OCC2CCCO2)c2c(C3CCC3)nn(-c3ccccc3)c2n1 (stereo not drawn) [Compound 283, 3-cyclobutyl-N-(methanesulfonyl)-4-[(oxolan-2-yl)methoxy]-1-phenyl-1H-pyrazolo[3,4-b]pyridine-6-carboxamide] | 326.85 | 265 | 141.2 | 477
CC(C)c1nn(-c2ccc(F)cc2)c2nc(C(=O)NS(C)(=O)=O)cc(OCC3CCOCC3)c12 [Compound 284, 1-(4-fluorophenyl)-N-(methanesulfonyl)-4-[(oxan-4-yl)methoxy]-3-(propan-2-yl)-1H-pyrazolo[3,4-b]pyridine-6-carboxamide] | 348.7 | 220 | 154.4 | 276
CC(C)c1nn(-c2ccc(F)cc2)c2nc(C(=O)NS(C)(=O)=O)cc(OCCC3CCOCC3)c12 [Compound 285, 1-(4-fluorophenyl)-N-(methanesulfonyl)-4-[2-(oxan-4-yl)ethoxy]-3-(propan-2-yl)-1H-pyrazolo[3,4-b]pyridine-6-carboxamide] | 327.57 | 246 | 125.5 | 294
COCC1CCN(c2cc(C(=O)NS(=O)(=O)c3cn(C)cn3)nc3c2c(C2CCC2)nn3-c2ccccc2)CC1 [Compound 286, 3-cyclobutyl-4-[4-(methoxymethyl)piperidin-1-yl]-N-(1-methyl-1H-imidazole-4-sulfonyl)-1-phenyl-1H-pyrazolo[3,4-b]pyridine-6-carboxamide] | 500.55 | 159 | 264 | 327
COCC1CCN(c2cc(C(=O)NS(=O)(=O)c3c(C)noc3C)nc3c2c(C2CCC2)nn3-c2ccccc2)CC1 [Compound 287, 3-cyclobutyl-N-(3,5-dimethyl-1,2-oxazole-4-sulfonyl)-4-[4-(methoxymethyl)piperidin-1-yl]-1-phenyl-1H-pyrazolo[3,4-b]pyridine-6-carboxamide] | 450.9 | 128 | 204.9 | 183
COCC1CCN(c2cc(C(=O)NS(=O)(=O)CCCN(C)C)nc3c2c(C(C)C)nn3-c2ccc(F)cc2)CC1 [Compound 290, N-[3-(dimethylamino)propane-1-sulfonyl]-1-(4-fluorophenyl)-4-[4-(methoxymethyl)piperidin-1-yl]-3-(propan-2-yl)-1H-pyrazolo[3,4-b]pyridine-6-carboxamide] | 382.2 | 536 | 200.4 | 617
CC(C)c1nn(-c2ccc(F)cc2)c2nc(C(=O)NS(C)(=O)=O)cc(OCCCN3CCOCC3)c12 [Compound 292, 1-(4-fluorophenyl)-N-(methanesulfonyl)-4-[3-(morpholin-4-yl)propoxy]-3-(propan-2-yl)-1H-pyrazolo[3,4-b]pyridine-6-carboxamide] | 422.55 | 565 | 217.9 | 1060
CC(C)c1nn(-c2ccc(F)cc2)c2nc(C(=O)NS(C)(=O)=O)cc(OCC3(C)COC3)c12 [Compound 293, 1-(4-fluorophenyl)-N-(methanesulfonyl)-4-[(3-methyloxetan-3-yl)methoxy]-3-(propan-2-yl)-1H-pyrazolo[3,4-b]pyridine-6-carboxamide] | 317.1 | 480 | 113.3 | 622
CC(C)c1nn(-c2ccc(F)cc2)c2nc(C(=O)NS(C)(=O)=O)cc(OCC3CCCO3)c12 (stereo not drawn) [Compound 295, 1-(4-fluorophenyl)-N-(methanesulfonyl)-4-[(oxolan-2-yl)methoxy]-3-(propan-2-yl)-1H-pyrazolo[3,4-b]pyridine-6-carboxamide] | 298.07 | 697 | 129.6 | 1050
CC(=O)N1CCC(COc2cc(C(=O)NS(C)(=O)=O)nc3c2c(C2CCC2)nn3-c2ccccc2)CC1 [Compound 296, 4-[(1-acetylpiperidin-4-yl)methoxy]-3-cyclobutyl-N-(methanesulfonyl)-1-phenyl-1H-pyrazolo[3,4-b]pyridine-6-carboxamide] | 329.13 | 168 | 154.7 | 396
COCC1CCN(c2cc(C(=O)NS(=O)(=O)CCC(=O)N(C)C)nc3c2c(C2CCC2)nn3-c2ccccc2)CC1 [Compound 298, 3-cyclobutyl-N-[3-(dimethylamino)-3-oxopropane-1-sulfonyl]-4-[4-(methoxymethyl)piperidin-1-yl]-1-phenyl-1H-pyrazolo[3,4-b]pyridine-6-carboxamide] | 481.2 | 81 | 312.9 | 282
CC(C)c1nn(-c2ccc(F)cc2)c2nc(C(=O)NS(C)(=O)=O)cc(OCCCN(C)C)c12 [Compound 299, 4-[3-(dimethylamino)propoxy]-1-(4-fluorophenyl)-N-(methanesulfonyl)-3-(propan-2-yl)-1H-pyrazolo[3,4-b]pyridine-6-carboxamide] | 267.2 | 2510 | 81.41 | 3330
CS(=O)(=O)NC(=O)c1cc(-c2ccc(N3CCC(C#N)CC3)nc2)c2c(OC3COC3)nn(-c3ccccc3)c2n1 [Compound 300, 4-[6-(4-cyanopiperidin-1-yl)pyridin-3-yl]-N-(methanesulfonyl)-3-[(oxetan-3-yl)oxy]-1-phenyl-1H-pyrazolo[3,4-b]pyridine-6-carboxamide] | 266.55 | 109 | 119.9 | 309
